Experimental data from patent publication US20260138969A1 (Korea Research Institute of Chemical Technology, priority 2023, published 2026).

What was measured:
[1] = test system: α-Syn transgenic Parkinson's disease mouse model; assay: α-Syn transgenic Parkinson's disease mouse model: step error (beam test); type: in vivo; settings: at 7 and 9 months; Memantine 10 mg/kg, Example 3 2/10/50 mg/kg, Example 2 2 mg/kg PO QD; vs G2
Description: (§1) The test drug was administered once daily (QD) via oral administration (PO) with a solution of 5 ml/kg for 5 months from 4 months to 9 months of age. Motor behavior tests (beam test) and neurological scores (modified Irwin test) were performed at 4 months (before administration), 7 months, and 9 months. After the final behavioral test, tissue samples were taken. Weight was measured on the same day once a week from 4 months of age until the end of the study.
The procedure described by Fleming et al. (J Neurosci, 24:9434-40, 2004) was adopted as the beam test (Challenging Beam Traversal). Exercise capacity was measured with a new beam test that was a modification of the existing beam walking test. The beam is made of Plexiglas and consists of four sections (each 25 cm and a total length of 1 m), each with a different width. The beam is designed to start at 3.5 cm wide and gradually narrow in increments of 0.5 cm×1 cm. A shelf 1 cm wide was placed 1.0 cm below the top surface of the beam.
The mouse was trained to cross the length of the beam, starting from the widest section and ending with the narrowest and most difficult section. The narrow end of the beam is designed to connect directly to the mouse's house cage. The mice were trained for two days before testing, and all training was carried out without a mesh grid. On the first day, two auxiliary exercises were performed, in which the mouse was placed on a beam and the home cage was placed close to the mouse. This induces it to move forward along the beam. […]
The error was counted if the limb (front or hind leg) passed through the grid during forward movement and was visible between the grid and the beam surface. […] Error was measured by scoring each limb slippage individually. For example, a mouse with three limbs slipping off the grid in one step was rated with an error score of 3 points, while a mouse with only one limb slipped off the grid in one step was evaluated with an error score of 1 in that step. […] The number of step errors and the time it took to cross were measured and averaged in all five experiments.

[2] = test system: α-Syn transgenic Parkinson's disease mouse model; assay: α-Syn transgenic Parkinson's disease mouse model: microglial reduction (Iba-1); type: in vivo; settings: 9 months of age; Memantine 10 mg/kg (G3), G4 2 mg/kg, G5 10 mg/kg, G7 2 mg/kg PO QD
Description: as §1
At 9 months of age, the measurement period ended, the mice were anesthetized, and then the experiment was terminated by cardiac puncture according to IACUC guidelines. Mice were perfused transcardially with 0.9% saline for tissue staining, followed by 4% paraformaldehyde until the mice were fixed. The brains were isolated and immobilized by soaking in 4% paraformaldehyde at 4° C. for 24 hours, followed by 30% sucrose added to PBS containing 0.02% sodium azide and stored at 4° C. for 3 days. Brain samples embedded in OCT compounds were sectioned to a thickness of 20 μm using Leica CM1950 (Leica Microsystems, Germany). The sections were stored at 4° C. in a preservation solution until they were stained by antibodies. […]
To assess microgliosis of the cortex, Iba-1-stained brain tissue was imaged in experimental example 10.5 using an immunofluorescence microscope (Olympus, BZ21) in Olympus. Each marker was manually counted to quantify Iba1.

SMILES: CC12CC3CC(C)(C1)CC(N)(C3)C2 [Memantine, reference compound]
- number of step errors (beam test) [1]: significant reduction in the number of step errors compared to Group G2
- number of IBA-1 positive cells in the cerebral cortex [2]: significantly reduced
